Experimental data published in patent US20180354991A1, “THERAPEUTIC COMPOSITIONS INCLUDING GRAMICIDIN S PEPTIDYL CONJUGATES OR IMIDAZOLE-SUBSTITUTED FATTY ACIDS, VARIANTS THEREOF AND USES THEREOF” (Stealth Biotherapeutics Corp, priority 2015, published 2018).

Test system: neonatal cardiomyocytes
Test: Ang II-induced mitochondrial superoxide (Mitosox) in neonatal cardiomyocytes
Assay type: cell-based, mouse
Details: Angiotensin II 1 μM for 3 hours; peptide conjugates 1 nM or equimolar; NAC 0.5 mM
Method: Ventricles from mouse neonates younger than 72 hours will be dissected, minced, and enzymatically digested with Blendzyme 4 (45 mg/mL, Roche). After enzymatic digestion, cardiomyocytes will be enriched using differential pre-plating for 2 hours, and seeded on fibronectin-coated culture dishes for 24 hours in DMEM (Gibco) with 20% Fetal Bovine Seium (Sigma) and 25 μM Arabinosylcytosine (Sigma). Cardiomyocytes will be stimulated with Angiotensin II (1 μM) for 3 hours in serum-free DMEM containing 0.5% insulin transferrin-selenium (Sigma), 2 mM glutamine, and 1 mg/mL BSA. […] Samples will be analyzed using excitation/emission of 488/625 nm by flow cytometry. Flow data will be analyzed using FCS Express (De Novo Software, Los Angeles, Calif., U.S.A.), and presented as histogram distributions of Mitosox fluorescence intensity.

## CC(=O)N[C@@H](CS)C(=O)O [N-acetyl cysteine]
  Ang II-induced Mitosox fluorescence (mitochondrial ROS): not show any effect
